From PubChem BioAssay AID192 (DTP/NCI, 2004)
Inconclusive results and toxic doses are left out. How the source made its calls: active means survival T/C of 150% or more; inactive means T/C below 125% in these data.

Test system: BDF1 mice, B16 melanoma ip, median survival T/C
Assay: NCI In Vivo Anticancer Drug Screen. Data for tumor model B16 Melanoma (intraperitoneal) in B6D2F1 (BDF1) mice
Settings: endpoint: median survival time, higher = longer survival
Procedure, shortened: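 Survival or tumor size is measured after treatment of tumor-bearing mice and normalised to the vehicle-treated control group.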

[1] = dose: 6.25 mg/kg/injection, schedule: Q01DX009 (ip), vehicle: saline
[2] = dose: 12.5 mg/kg/injection, schedule: Q01DX009 (ip), vehicle: saline
[3] = dose: 25.0 mg/kg/injection, schedule: Q01DX009 (ip), vehicle: saline
[4] = dose: 50.0 mg/kg/injection, schedule: Q01DX009 (ip), vehicle: saline
[5] = dose: 100.0 mg/kg/injection, schedule: Q01DX009 (ip), vehicle: saline
[6] = dose: 50.0 mg/kg/injection, schedule: Q01DX009 (ip), vehicle: Klucel (hydroxypropylcellulose) (HPC)
[7] = dose: 100.0 mg/kg/injection, schedule: Q01DX009 (ip), vehicle: Klucel (hydroxypropylcellulose) (HPC)
[8] = dose: 200.0 mg/kg/injection, schedule: Q01DX009 (ip), vehicle: Klucel (hydroxypropylcellulose) (HPC)
[9] = dose: 400.0 mg/kg/injection, schedule: Q01DX009 (ip), vehicle: Klucel (hydroxypropylcellulose) (HPC)

Measured: T/C

Cc1ccc(NC(=O)Nc2ccccc2Cl)cc1
inactive: dose: 100.0 mg/kg/injection, schedule: Q01DX009 (ip), vehicle: gum acacia 89 % of control

Cc1cn(C2CC(F)C(CO)O2)c(=O)[nH]c1=O (stereo not given)
inactive: [1] 108 % of control | [2] 103 % of control | [3] 110 % of control | [4] 115 % of control | [5] 97 % of control

Cc1ccc(S(=O)(=O)N/N=C/c2ccccc2Cl)cc1
inactive: dose: 1.56 mg/kg/injection, schedule: Q01DX009 (ip), vehicle: other 98 % of control | dose: 3.13 mg/kg/injection, schedule: Q01DX009 (ip), vehicle: other 99 % of control | dose: 6.25 mg/kg/injection, schedule: Q01DX009 (ip), vehicle: other 96 % of control | dose: 12.5 mg/kg/injection, schedule: Q01DX009 (ip), vehicle: Klucel (hydroxypropylcellulose) (HPC) 91 % of control | dose: 12.5 mg/kg/injection, schedule: Q01DX009 (ip), vehicle: other 90 % of control | [6] 89 % of control | [7] 86 % of control

Clc1ccc(/C=C2\c3cc(Cl)ccc3-c3c(Cl)cc(Cl)cc32)cc1
inactive: dose: 6.25 mg/kg/injection, schedule: Q01DX009 (ip), vehicle: saline with Tween-80 90 % of control

Cc1cc(C)c(S(=O)(=O)O)cc1C
inactive: [4] 115 % of control | [5] 104 % of control | dose: 200.0 mg/kg/injection, schedule: Q01DX009 (ip), vehicle: saline 87 % of control

C=C1C(=O)O[C@@H]2[C@H](O)[C@@H](C)[C@@H]3C=CC(=O)[C@@]3(C)[C@@H](OC(=O)/C(C)=C/C)[C@H]12
inactive: dose: 1.5 mg/kg/injection, schedule: Q01DX009 (ip), vehicle: other 101 % of control | dose: 1.5 mg/kg/injection, schedule: Q01DX009 (ip), vehicle: saline + alcohol 92 % of control | dose: 3.0 mg/kg/injection, schedule: Q01DX009 (ip), vehicle: other 98 % of control | dose: 3.0 mg/kg/injection, schedule: Q01DX009 (ip), vehicle: saline + alcohol 96 % of control | dose: 6.0 mg/kg/injection, schedule: Q01DX009 (ip), vehicle: other 99 % of control | dose: 6.0 mg/kg/injection, schedule: Q01DX009 (ip), vehicle: saline + alcohol 96 % of control

C[N+](C)(C)c1ncnc2c1ncn2C1CCCO1 (stereo not given)
inactive: [1] 111 % of control | [2] 105 % of control | [3] 108 % of control | [4] 111 % of control | [5] 117 % of control

Nc1nc2c(ncn2C2OC(CO)C(O)C2O)c(=O)[nH]1 (stereo not given)
inactive: dose: 25.0 mg/kg/injection, schedule: Q01DX009 (ip), vehicle: suspension in saline 101 % of control | dose: 50.0 mg/kg/injection, schedule: Q01DX009 (ip), vehicle: suspension in saline 110 % of control | dose: 100.0 mg/kg/injection, schedule: Q01DX009 (ip), vehicle: suspension in saline 113 % of control | dose: 400.0 mg/kg/injection, schedule: Q01DX009 (ip), vehicle: suspension in saline 116 % of control

CC(=O)Nc1cc2c(cc1Br)-c1ccccc1C2O (stereo not given)
inactive: dose: 12.5 mg/kg/injection, schedule: Q01DX009 (ip), vehicle: saline with Tween-80 92 % of control | dose: 12.5 mg/kg/injection, schedule: Q04DX003 (ip), vehicle: saline with Tween-80 92 % of control | dose: 25.0 mg/kg/injection, schedule: Q01DX009 (ip), vehicle: saline with Tween-80 102 % of control | dose: 25.0 mg/kg/injection, schedule: Q04DX003 (ip), vehicle: saline with Tween-80 100 % of control | dose: 50.0 mg/kg/injection, schedule: Q01DX009 (ip), vehicle: saline with Tween-80 89 % of control | dose: 50.0 mg/kg/injection, schedule: Q04DX003 (ip), vehicle: saline with Tween-80 95 % of control | dose: 100.0 mg/kg/injection, schedule: Q04DX003 (ip), vehicle: saline with Tween-80 90 % of control

O=C1CC(c2ccc(O)cc2)CC(=O)C1C(C1CC=CCC1)N(CCCl)CCCl (stereo not given)
inactive: dose: 25.0 mg/kg/injection, schedule: Q01DX009 (ip), vehicle: Klucel (hydroxypropylcellulose) (HPC) 88 % of control | [6] 95 % of control | [7] 90 % of control | [8] 92 % of control | [9] 97 % of control

NC(=O)c1ccccc1NC(=O)COc1ccc(Cl)cc1
inactive: [7] 106 % of control | [8] 106 % of control | [9] 100 % of control

O=C(O)CC(NC(=O)OCc1ccccc1)C(=O)O (stereo not given)
inactive: dose: 1.56 mg/kg/injection, schedule: Q01DX009 (ip), vehicle: saline 98 % of control | dose: 3.12 mg/kg/injection, schedule: Q01DX009 (ip), vehicle: saline 104 % of control | [1] 92 % of control
